By IC50 is commonly meant the concentration that gives 50% inhibition.

For one assay, the target named is Tyrosine-protein kinase BTK (Homo sapiens, UniProt Q06187). As to the kind of experiment: Inhibition of BTK (unknown origin).
`Nc1ncnc2c1c(-c1ccc(Oc3ccccc3)cc1)nn2C1CCCN(C(=O)/C=C/Cl)C1` (configuration not stated) yielded an IC50 of 0.52 nM.

Another assay concerns GTPase KRas (Homo sapiens), P01116 [G12C]. The experiment in a line: Binding affinity to hexa-histidine-tagged recombinant human K-Ras isoform 2 G12C mutant (1 to 169 residues) expressed in Escherichia coli BL21 (DE3) at 10 uM after 24 hrs.
On to `C=CS(=O)(=O)NC1CCN(C(=O)CNc2cc(I)c(Cl)cc2OC)CC1`, for which the Activity amounted to 100%. Still for that read-out and setting: as for `C=CC(=O)N1CCN(C(=O)CNc2cc(I)c(Cl)cc2O)CC1`, the figure is 100%; as for `C=CS(=O)(=O)NC1CCN(C(=O)CNc2cc(Cl)c(Cl)cc2O)CC1`, 87%.

Turning to `C=CC(=O)N1CCN(C(=O)CNc2cc(C(F)(F)F)c(Cl)cc2OC)CC1`, the Activity is 14%. Regarding `C=CS(=O)(=O)NC1CCN(C(=O)CNc2c(Cl)cc(Cl)c3c2OC(C)(C)O3)CC1`, the Activity is 50%. On the same count and under the same terms, as for `C=CC(=O)N1CCN(C(=O)CNc2cc(Cl)c(Cl)cc2OC)CC1`, the figure is 28%.
